The values below are quoted from earlier work in patent publication US20070298096A1, “Analgesic/Antipyretic Compositions for Enhanced Absorption” (priority 2004, published 2007).

Read-outs that look alike come from different tables or passages of the source.

As for `CC(=O)Nc1ccc(O)cc1` [APAP, acetaminophen], the tmax by setting is: (1 gram of APAP administered with 4 grams of calcium carbonate) 1.9 h; (APAP alone, 1 gram) 1.4 h. Also, where the note is “co-administered with the calcium carbonate”, the “time for the plasma level of APAP to reach its maximum, longer than APAP alone” value was “½”.
